Laboratory results reported in EP4775208A1, “USE OF PRMT5 INHIBITOR IN TREATMENT OF TUMORS OR CANCERS” (Apeiron Therapeutics (Hong Kong) Ltd., priority 2023, dated 2025).

Key:
[1] = tested on: HCT-116 MTAP(-/-) deficient cells; assay: Inhibition of proliferation of HCT-116 MTAP(-/-) deficient cells (Cell-Titer Glo); assay type: cell-based; details: 8 days
Procedure, shortened: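 Cells in log-phase growth, RPMI-1640 with 10% FBS, seeded and left overnight at 37°C, 5% CO2. Compound tested at 0–10,000 nM (10 points, 3-fold, 0.1% DMSO) for 8 days at 37°C, 5% CO2. Viability read by CellTiter-Glo luminescence.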

[2] = tested on: HCT-116 MTAP wild-type cells; assay: Inhibition of proliferation of HCT-116 MTAP wild-type cells (Cell-Titer Glo); assay type: cell-based; details: 8 days
Procedure, shortened: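 MTAP wild-type HCT-116 cells were seeded, cultured overnight and then exposed to compound from 10,000 nM down in a 10-point, 3-fold series (0.1% DMSO). Plates were incubated 8 days at 37°C, 5% CO2. Proliferation was read by Cell-Titer Glo viability luminescence.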

U87MG MTAP(-/-) cells = assay: Inhibition of proliferation of U87MG MTAP(-/-) cells (CellTiter-Glo); assay type: cell-based; details: cell proliferation, 6 days
Method: Test 7: Assay for Inhibitory Activity of Compounds against U87MG MTAP(-/-) Cell Proliferation
Materials and Cells: The U87MG MTAP(-/-) cell line was purchased from ATCC (USA). Cell culture media, fetal bovine serum (FBS), and penicillin-streptomycin were purchased from Thermo Fisher Scientific (USA). 384-well plates were purchased from PerkinElmer (USA). The CellTiter-Glo assay kit was purchased from Promega (USA).
Cell Culture: U87MG MTAP(-/-) cells were cultured in a medium supplemented with 10% fetal bovine serum (FBS) and 1% penicillin-streptomycin at 37°C with 5% CO2. Only cells in the logarithmic growth phase were used for experiments.
Cell Proliferation Inhibition Assay: The antiproliferative activity of the compounds against U87MG MTAP(-/-) cells was assessed using the CellTiter-Glo assay kit. Cell suspensions were adjusted to the appropriate density and seeded into 384-well plates at a volume of 40 µL per well, then incubated overnight at 37°C with 5% CO2. Compounds (40 nL) were added to each well to achieve final concentrations ranging from 0 to 10,000 nM (starting concentration 10,000 nM, 3-fold serial dilutions, 10 dose points), with a final DMSO concentration of […]. The cell plates were incubated at 37°C with 5% CO2 for 6 days. Subsequently, 40 µL of CellTiter-Glo reagent was added to measure cell viability. Paclitaxel was used as a control compound.

[3] = Mouse pharmacokinetic experiment (IV and PO, plasma); assay type: in vivo, ICR male mice; details: male, mouse, plasma; ICR mice, PO(10mg/kg) vs IV(3mg/kg); read-out: Bioavailability F (%)
Method: II. Mouse Pharmacokinetic Experiment
The compounds used in this experiment are specific embodiments of the present invention, with reference to compound AMG473 as an example from Amgen's patent WO 2022/169948A1, identified as example 473.
ICR male mice, N=3/group; sourced from Zhejiang Vital River Laboratory Animal Technology Co., Ltd.
3. Drug Preparation and Administration
Single oral (PO) administration to ICR mice: Compounds were dissolved in dimethyl sulfoxide, added to polyethylene glycol 400 and sterile water, and then adjusted to a clear solution with a small amount of 1 mol/L hydrochloric acid. After overnight fasting, the mice were orally gavaged with a dose of 10 mg/kg. Single intravenous (IV) administration to ICR mice: Compounds were dissolved in dimethyl sulfoxide, added to polyethylene glycol 400 and sterile water, and then adjusted to a clear solution with a small amount of 1 mol/L hydrochloric acid. After overnight fasting, the mice received tail vein injections with a dose of 3 mg/kg.
Approximately 30 µL/time point blood samples were collected via the tail vein. Potassium ethylenediaminetetraacetate was used as an anticoagulant, and samples were centrifuged at 4000 g/min for 5 minutes at 4°C within 1 hour. Blood sampling time points were 0.0833 (IV), 0.25, 0.5, 1, 2, 4, 6, 8, 24 hours. Samples were stored in a -20°C freezer.
Plasma samples (30µL, 10µL sample + 20µL blank plasma) were mixed with 200µL ice-cold acetonitrile containing internal standards. After vortexing for 30 seconds, samples were centrifuged at 4000g/min for 20 minutes. One hundred microliters of the supernatant were transferred to a 96-well plate, followed by the addition of 200µL ultrapure water. After vortexing for 30 seconds, 5µL or 10µL were injected into LC-MS/MS for analysis. Table 7: Pharmacokinetic Data

Compound	IC50 ([1]; Homo sapiens, HCT-116, 192 h) [nM]	IC50 ([2]; Homo sapiens, HCT-116, 192 h) [nM]	IC50 (U87MG MTAP(-/-) cells; Homo sapiens, U-87 MG, 144 h) [nM]	IC50 [1] [nM]	IC50 [2] [nM]	IC50 (U87MG MTAP(-/-) cells) [nM]	bioavailability [3] [%]
Cc1ncc2c(N)nc3ccc(C(=O)N(C)[C@@H]4COc5cc(C(F)(F)F)ccc54)cc3n12 [Example 39, (S)-4-amino-N,1-dime thyl-N-(6-(trifluoromethyl)-2,3-dihydrobenzofuran-3-yl)imidazo[1 ,5-a]quinoxaline-8-carboxamide]	15.9	2040	176				
Cc1ncc(-c2ccc3c(c2)OC[C@H]3N(C)C(=O)c2cc3c(cc2F)nc(N)c2cncn23)cn1 [Example 40, (S)-4-amino-7-fluoro-N-methyl-N-(6-(2-methylpyrimidin-5-yl)-2,3-dihydrobenzofuran-3-yl)imidazo[1,5-a]qu inoxaline-8-carboxamide]	32.1	9200	153				
CN(C(=O)c1ccc2nc(N)c3cncn3c2c1)C1COc2cc(S(F)(F)(F)(F)F)ccc21 (stereo not drawn) [Example 45, 4-amino-N-methyl-N-(6-(pentafluoro-λ^6-sulfaneyl)-2,3-dihydrobenzofuran-3-yl)imidaz o[1,5-a]quinoxaline-8-carboxamide]	10.3	947	60.6				
CN(C(=O)c1ccc2nc(N)c3cncn3c2c1)[C@@H]1COc2cc(-c3cncc(C(F)(F)F)c3)ccc21 [Example 47, (S)-4-amino-N-methy 1-N-(6-(5-(trifluoromethyl)pyridin-3-yl)-2,3-dihydrobenzofuran-3-yl)imidazo[1,5-a]quin oxaline-8-carboxamide]	17.7	4100	475				
CCN(C(=O)c1ccc2nc(N)c3cncn3c2c1)[C@@H]1COc2cc(C(F)(F)F)ccc21 [Example 55, (S)-4-amino-N-ethyl-N-(6-(trifluoromethyl) -2,3-dihydrobenzofuran-3-yl)imidazo[1,5-a] quinoxaline-8-carbox amide]	11.8	1220	74.9				
CN(C(=O)c1ccc2nc(N)c3cncn3c2c1)[C@@H]1COc2cc(OC(F)(F)F)ccc21 [Example 56, (S)-4-amino-N-methy 1-N-(6-(trifluoromethoxy)-2,3-dihydrobenzofuran-3-yl)imidazo[1,5-a]quinoxaline-8-car boxamide]	15.9	1530	108				
[2H]C([2H])([2H])N(C(=O)c1cc2c(cn1)nc(N)c1cncn12)[C@@H]1COc2cc(C(F)(F)F)ccc21 [Example 75, (S)-4-amino-N-(methyl-d3)-N-(6-(trifluoromethyl)-2,3-dihydrobenzofuran-3-yl)imidazo[1,5-a]pyrido[3,4-e]pyrazine-8-carb oxamide]	7.3	1170	72.1				
CN(C(=O)c1ccc2nc(N)c3cncn3c2c1)[C@@H]1COc2cc(C(F)(F)F)ccc21 [Example 79, (S)-4-amino-N-methy 1-N-(6-(trifluoromethyl)-2,3-dihydrobenzofuran-3-yl)imidazo[1,5-a]quinoxaline-8-carbo xamide-3-d]				5.6	1300	83.3	
COc1ccc2c(c1)OC[C@H]2N(C)C(=O)c1cc2c(cc1F)nc(N)c1cncn12 [Example 80, (S)-4-amino-7-fluoro-N-(6-methoxy-2,3-dihydrobenzofuran-3-yl)-N-methylimidazo[1,5-a]quinoxaline-8-carboxamide]	39.3	9170	376				
CN(C(=O)c1cc2c(cc1F)nc(N)c1cncn12)[C@@H]1COc2cc(-c3ccnn3C)ccc21 [Example 117, (S)-4-amino-7-fluoro-N-methyl-N-(6-(1-methyl-1H-pyrazol-5-yl) -2,3-dihydrobenzofuran-3-yl)imidazo[1,5-a] quinoxaline-8-carbox amide]	6.6	617	61.3				
Cc1cc(-c2ccc3c(c2)OC[C@H]3N(C)C(=O)c2cc3c(cc2F)nc(N)c2cncn23)on1 [Example 119, (S)-4-amino-7-fluoro-N-methyl-N-(6-(3-methylisoxazol-5-yl)-2,3-dihydrobenzofuran-3-yl)imidazo[1,5-a]qui noxaline-8-carboxamide]	13.5	1310	101				
COC(=O)c1ccc2c(c1)OC[C@H]2N(C)C(=O)c1ccc2nc(N)c3cncn3c2c1 [Example 122, methyl (S)-3-(4-amino-N-methylimidazo[1,5-a]quinoxaline-8-carboxamido)-2,3-dihydrobenzofuran-6-carboxylate]	50.6	> 10000	777				
CCN(C(=O)c1cc2c(cc1F)nc(N)c1cncn12)[C@@H]1COc2cc(C(F)(F)F)ccc21 [Example 124, (S)-4-amino-N-ethyl-7-fluoro-N-(6-(trifluor omethyl)-2,3-dihydrobenzofuran-3-yl)imid azo[1,5-a]quinoxaline-8-carboxamide]	6.5	634	64.4				
CN(C(=O)c1ccc2nc(N)c3cncn3c2c1)[C@@H]1COc2cc(C(F)(F)C(F)(F)F)ccc21 [Example 130, (S)-4-amino-N-methy 1-N-(6-(perfluoroethyl)-2,3-dihydrobenzofuran-3-yl)imidazo[1,5-a]quinoxaline-8-carbox amide]	5.8	1290					77.5
(S)-4-amino-7-fluoro-N-methyl-N-(6-(1-me thyl-1H-pyrazol-4-yl) -2,3-dihydrobenzofura n-3-yl)imidazo[1,5-a] quinoxaline-8-carbox amide [Example 34]				29.6	6570	179	
(S)-4-amino-N-methyl-N-(6-(trifluoromethyl)-2,3-dihydrobenzofuran-3-yl)imidazo[1,5-a]quinoxaline-8-carboxamide-1-d [Example 78]				7.1	2070	211	
